Experimental data as given in US20060035813A1, “Methods and formulations comprising agonists and antagonists of nuclear hormone receptors” (priority 2002, published 2006).
“Also recorded” adds a separate entry of the source.

Key:
[1] = tested on: tyrosine aminotransferase (TAT) in HTC cells; type: cell-based, rat
[2] = target: T1, glucocorticoid receptor (GR) (Rattus norvegicus, UniProt P06536); type: cell-based
T1 construct: expressed in transfected cells; host or cells: Cos7
T1 sequence (P06536 1-795): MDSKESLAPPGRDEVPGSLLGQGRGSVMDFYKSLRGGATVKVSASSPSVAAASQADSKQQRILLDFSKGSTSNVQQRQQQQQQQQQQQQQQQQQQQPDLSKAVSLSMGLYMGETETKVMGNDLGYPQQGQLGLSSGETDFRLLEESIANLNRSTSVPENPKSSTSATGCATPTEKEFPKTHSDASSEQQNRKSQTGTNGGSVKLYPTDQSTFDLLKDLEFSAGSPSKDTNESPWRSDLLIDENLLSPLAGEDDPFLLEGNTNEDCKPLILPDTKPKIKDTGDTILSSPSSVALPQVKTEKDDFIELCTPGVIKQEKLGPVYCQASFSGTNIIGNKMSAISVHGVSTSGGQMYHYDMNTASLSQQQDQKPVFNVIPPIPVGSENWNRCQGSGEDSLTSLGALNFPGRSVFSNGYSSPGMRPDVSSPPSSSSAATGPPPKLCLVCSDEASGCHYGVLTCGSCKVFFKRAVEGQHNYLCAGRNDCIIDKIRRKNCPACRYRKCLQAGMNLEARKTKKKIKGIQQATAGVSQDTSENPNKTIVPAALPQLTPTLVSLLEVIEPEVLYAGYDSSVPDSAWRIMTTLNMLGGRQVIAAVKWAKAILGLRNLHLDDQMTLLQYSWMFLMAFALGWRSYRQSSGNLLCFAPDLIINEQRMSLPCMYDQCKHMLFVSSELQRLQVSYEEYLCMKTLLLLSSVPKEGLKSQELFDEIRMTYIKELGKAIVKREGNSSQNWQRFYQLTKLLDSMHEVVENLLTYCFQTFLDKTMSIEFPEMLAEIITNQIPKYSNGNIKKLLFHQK

[3] = tested on: Raw264.7 cells; type: cell-based
[4] = target: T1, glucocorticoid receptor (GR); type: binding
[5] = target: T2, progesterone receptor B (PR-B) (Homo sapiens, UniProt P06401); conditions: 100 nM progesterone; 2 ng/ml LF+500 ng/ml PA; RU486 up to 1 μM; pLTR luc
T2 sequence (P06401 1-933): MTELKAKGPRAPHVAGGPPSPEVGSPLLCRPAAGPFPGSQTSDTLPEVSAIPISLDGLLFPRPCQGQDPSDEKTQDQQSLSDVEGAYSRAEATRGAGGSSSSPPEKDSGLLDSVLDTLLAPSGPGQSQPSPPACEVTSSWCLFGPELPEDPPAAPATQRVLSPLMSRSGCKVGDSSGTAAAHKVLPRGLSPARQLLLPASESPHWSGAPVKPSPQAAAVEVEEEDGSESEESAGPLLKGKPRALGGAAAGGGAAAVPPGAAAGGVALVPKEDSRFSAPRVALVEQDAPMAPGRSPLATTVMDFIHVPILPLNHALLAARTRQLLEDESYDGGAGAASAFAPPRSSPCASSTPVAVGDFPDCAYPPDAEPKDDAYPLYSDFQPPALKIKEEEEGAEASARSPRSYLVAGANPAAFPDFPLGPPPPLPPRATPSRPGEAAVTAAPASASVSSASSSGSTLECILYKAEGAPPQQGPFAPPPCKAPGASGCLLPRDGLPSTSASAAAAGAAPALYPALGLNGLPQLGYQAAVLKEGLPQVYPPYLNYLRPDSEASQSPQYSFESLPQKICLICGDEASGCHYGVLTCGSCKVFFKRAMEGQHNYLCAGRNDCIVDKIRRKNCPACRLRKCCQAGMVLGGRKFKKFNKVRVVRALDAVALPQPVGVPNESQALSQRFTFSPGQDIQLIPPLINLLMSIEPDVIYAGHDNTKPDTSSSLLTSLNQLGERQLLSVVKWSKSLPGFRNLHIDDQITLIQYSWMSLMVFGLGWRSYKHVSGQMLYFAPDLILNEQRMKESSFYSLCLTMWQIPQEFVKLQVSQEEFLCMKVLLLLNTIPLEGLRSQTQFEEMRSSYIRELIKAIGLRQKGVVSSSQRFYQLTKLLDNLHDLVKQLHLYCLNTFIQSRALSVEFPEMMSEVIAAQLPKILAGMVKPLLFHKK

[6] = tested on: J774.1 cells; type: cell-based
[7] = tested on: constitutive luciferase vector, pGL3 control; type: cell-based

C[S+]([O-])c1ccc(-c2nc(-c3ccncc3)c(-c3ccc(F)cc3)[nH]2)cc1 (centres unmarked) [SB203580]
effect of MAPK inhibitor on dexamethasone-induced TAT activity [1]: repress dexamethasone-induced TAT activity
GR/GRE-specific effect of MAPK pathway inhibitor on Dex-induced GR transactivation [2]: has no effect on GR-mediated transactivation

Nc1nccc(-c2c(-c3ccc(F)cc3)ncn2C2CCNCC2)n1 [SB220025]
effect of MAPK inhibitor on dexamethasone-induced TAT activity [1]: repress dexamethasone-induced TAT activity

COc1ccc(C2CNC(=O)C2)cc1OC1CCCC1 (centres unmarked) [rolipram]
effect on LeTx repression of dexamethasone-induced TAT activity [1]: does not prevent LeTx repression
effect of rolipram on LeTx toxicity [3]: does not prevent LeTx toxicity

CC#C[C@]1(O)CC[C@H]2[C@@H]3CCC4=CC(=O)CCC4=C3[C@@H](c3ccc(N(C)C)cc3)C[C@@]21C [RU 486, mifepristone]
competition with [3H] dexamethasone for binding to GR [4]: can compete
repression of progesterone-induced PR-B transactivation in the presence of LeTx [5]: fully repress
mode of GR repression / antagonism [2]: competitive antagonist
repression of Dex-induced GR transactivation in the presence of LeTx [2]: fully repressed; also recorded: fully repress
effect of pretreatment on LeTx toxicity [6]: does not prevent LeTx toxicity
effect of pretreatment on LeTx toxicity [3]: does not prevent LeTx toxicity

COc1cccc(-c2cc(=O)c3ccccc3o2)c1N [PD98059]
effect of MAPK inhibitor on dexamethasone-induced TAT activity [1]: repress dexamethasone-induced TAT activity
effect on constitutive luciferase (pGL3 control) [7]: decreased luciferase activity; also recorded: non-specific suppressive effect on luciferase
GR/GRE-specific effect of MAPK pathway inhibitor on Dex-induced GR transactivation [2]: does not affect GR transactivation; also recorded: no GRE specific effect; also recorded: did not alter GR repression; also recorded: does not have any GR specific effect
effect on GRE-luciferase activity [2]: decreased luciferase activity

C[C@@H]1C[C@H]2[C@@H]3CCC4=CC(=O)C=C[C@]4(C)[C@@]3(F)[C@@H](O)C[C@]2(C)[C@@]1(O)C(=O)CO [Dex, dexamethasone]
Dex concentration as low as which TAT is induced [1]: 10 nM
induction of TAT activity [1]: approximately 10 fold
